According to patent US10792289B2 (Horizon Orphan LLC, priority 2009, dated 2020):

Test system: stable CF patients
Assay: Phase 2 study: CFQ-R questionnaire
Type: in vivo, human
Description: The following dosage regimens (as nebulizer loaded doses) were evaluated: 120 mg QD (daily); 240 mg QD (daily); and 240 mg BID (twice daily).
Patients were assessed on Day 1, 7, 14, and 28, and then up to 28 days after completion of study drug, namely, Days 42 and 56. The end of the study was defined as the last visit of the last patient.
Efficacy was evaluated by microbiologic assessment of sputum samples, time to need for anti-pseudomonal antimicrobials, the Cystic Fibrosis Questionaire-Revised (CFQ-R), and pulmonary function tests. […] Pair-wise comparisons between all the treatment arms were conducted as secondary analyses.
Patients completed the CFQ-R questionnaire with domains that included: respiratory, body image, digestion, eating, emotion, health perception, physical, role/school, social, treatment burden, vitality, and weight.

[1] = EE population, Combined 240 mg QD and BID

## C[C@H]1COc2c(N3CCN(C)CC3)c(F)cc3c(=O)c(C(=O)O)cn1c23 [Levofloxacin, levofloxacin]
EE population, 120 mg QD
  Respiratory domain of CFQ-R, Change from Baseline to Day 14, Mean: 4.3
  Respiratory domain of CFQ-R, Change from Baseline to Day 14, Median: 5.5
  Respiratory domain of CFQ-R, Change from Baseline to Day 28, Mean: 1.6
  Respiratory domain of CFQ-R, Change from Baseline to Day 28, Median: 0.0
  Respiratory domain of CFQ-R, Day 1, Mean: 63.5
  Respiratory domain of CFQ-R, Day 1, Median: 66.7
  Respiratory domain of CFQ-R, Day 14, Mean: 67.8
  Respiratory domain of CFQ-R, Day 14, Median: 66.7
  Respiratory domain of CFQ-R, Day 28, Mean: 65.1
  Respiratory domain of CFQ-R, Day 28, Median: 66.7
EE population, 240 mg BID
  Respiratory domain of CFQ-R, Change from Baseline to Day 14, Mean: 8.5
  Respiratory domain of CFQ-R, Change from Baseline to Day 14, Median: 5.6
  Respiratory domain of CFQ-R, Change from Baseline to Day 28, Mean: 5.2
  Respiratory domain of CFQ-R, Change from Baseline to Day 28, Median: 5.5
  Respiratory domain of CFQ-R, Day 1, Mean: 60.3
  Respiratory domain of CFQ-R, Day 1, Median: 61.1
  Respiratory domain of CFQ-R, Day 14, Mean: 68.8
  Respiratory domain of CFQ-R, Day 14, Median: 72.2
  Respiratory domain of CFQ-R, Day 28, Mean: 66.0
  Respiratory domain of CFQ-R, Day 28, Median: 72.2
EE population, 240 mg QD
  Respiratory domain of CFQ-R, Change from Baseline to Day 14, Mean: 2.1
  Respiratory domain of CFQ-R, Change from Baseline to Day 14, Median: 0.0
  Respiratory domain of CFQ-R, Change from Baseline to Day 28, Mean: 1.0
  Respiratory domain of CFQ-R, Change from Baseline to Day 28, Median: 0.0
  Respiratory domain of CFQ-R, Day 1, Mean: 60.8
  Respiratory domain of CFQ-R, Day 1, Median: 61.1
  Respiratory domain of CFQ-R, Day 14, Mean: 63.2
  Respiratory domain of CFQ-R, Day 14, Median: 66.7
  Respiratory domain of CFQ-R, Day 28, Mean: 61.7
  Respiratory domain of CFQ-R, Day 28, Median: 66.7
[1]
  Respiratory domain of CFQ-R, Change from Baseline to Day 14, Mean: 5.3
  Respiratory domain of CFQ-R, Change from Baseline to Day 14, Median: 5.6
  Respiratory domain of CFQ-R, Change from Baseline to Day 28, Mean: 3.0
  Respiratory domain of CFQ-R, Change from Baseline to Day 28, Median: 0.0
  Respiratory domain of CFQ-R, Day 1, Mean: 60.5
  Respiratory domain of CFQ-R, Day 1, Median: 61.1
  Respiratory domain of CFQ-R, Day 14, Mean: 66.0
  Respiratory domain of CFQ-R, Day 14, Median: 66.7
  Respiratory domain of CFQ-R, Day 28, Mean: 63.8
  Respiratory domain of CFQ-R, Day 28, Median: 66.7
EE, 120 mg QD, Baseline to Day 28
  CFQ-R respiratory, mean change from baseline: 1.0 units
MITT population, 120 mg QD
  Respiratory domain of CFQ-R, Change from Baseline to Day 14, Mean: 4.5
  Respiratory domain of CFQ-R, Change from Baseline to Day 14, Median: 5.5
  Respiratory domain of CFQ-R, Change from Baseline to Day 28, Mean: 2.0
  Respiratory domain of CFQ-R, Change from Baseline to Day 28, Median: 0.0
  Respiratory domain of CFQ-R, Day 1, Mean: 62.3
  Respiratory domain of CFQ-R, Day 1, Median: 61.1
  Respiratory domain of CFQ-R, Day 14, Mean: 67.1
  Respiratory domain of CFQ-R, Day 14, Median: 66.7
  Respiratory domain of CFQ-R, Day 28, Mean: 64.6
  Respiratory domain of CFQ-R, Day 28, Median: 66.7
MITT population, 240 mg BID
  Respiratory domain of CFQ-R, Change from Baseline to Day 14, Mean: 7.5
  Respiratory domain of CFQ-R, Change from Baseline to Day 14, Median: 5.6
  Respiratory domain of CFQ-R, Change from Baseline to Day 28, Mean: 3.0
  Respiratory domain of CFQ-R, Change from Baseline to Day 28, Median: 0.0
  Respiratory domain of CFQ-R, Day 1, Mean: 60.5
  Respiratory domain of CFQ-R, Day 1, Median: 61.1
  Respiratory domain of CFQ-R, Day 14, Mean: 68.4
